Measurements published in BindingDB's records for patent US12473263 (Icahn School Of Medicine At Mount Sinai, 2025).
pKd: −log10 of the molar value.

Biological target: T1, Bromodomain-containing protein 4 [58-164] (Homo sapiens, UniProt O60885)
T1 construct: 58-164
Assay: Fluorescence Anisotropy Binding Assay
Protocol: Binding affinity of the newly synthesized compounds to the BRD4 BrD1 was assessed in a fluorescence anisotropy assay using a fluorescein isothiocyanate (FITC)-labeled MS417 as an assay probe (Zhang et al. 2008 op.cit.). Competition binding was performed with a BrD protein (0.25 to 1 μM) and the fluorescent probe (80 nM), and increasing concentration of unlabeled competing ligand in a PBS buffer (pH 7.4) in total volume of 80 μL. Measurements were obtained after 1 hour incubation of the fluorescent ligand and the protein at 25° C. with Safire 2 microplate reader (Tecan). In the assay, fluorescent ligand concentration was ≤2Kd, and protein concentration was set at which 50-80% of fluorescent ligand is bound. Dissociation constant of a competing ligand was calculated with the correction to Cheng-Prussoff equation introduced by Nicolovska-Coleska and colleagues [Nikolovska-Coleska, Z. et al., Anal Biochem 332, 261-273 (2004).

| Structure (SMILES) | pKd |
| --- | --- |
| N=c1n(Cc2cn(-c3ccccc3)nn2)c2ccccc2n1CC(O)c1ccc(Cl)c(Cl)c1 (stereo unspecified) [US12473263, Example 13] | 7.19 |
| Cc1ccccc1Cn1c(=N)n(CC(O)c2ccc(Cl)c(Cl)c2)c2ccc(Cl)cc21 (stereo unspecified) [US12473263, Example 3] | 6.30 |
| Cc1cccc(Cn2cc(Cn3c(=N)n(CC(O)c4ccc(Cl)c(Cl)c4)c4ccccc43)nn2)c1 (stereo unspecified) [US12473263, Example 8] | 6.25 |
| Cc1ccccc1Cn1c(=N)n(CC(O)c2ccc(Cl)c(Cl)c2)c2ccc(F)cc21 (stereo unspecified) [US12473263, Example 2] | 6.57 |
| N=c1n(Cc2cn(Cc3ccc(F)cc3)nn2)c2ccccc2n1CC(O)c1ccc(Cl)c(Cl)c1 (stereo unspecified) [US12473263, Example 12] | 5.41 |
| Cc1ccccc1Cc1cn(C[C@H](O)c2ccc(Cl)c(Cl)c2)c2ccccc12 [US12473263, Example 4] | 6.19 |
| COc1ccc2c(c1)n(Cc1ccccc1C)c(=N)n2CC(O)c1ccc(Cl)c(Cl)c1 (stereo unspecified) [US12473263, Example 1] | 6.16 |
| Cc1ccccc1Cn1cc(Cn2c(=N)n(CC(O)c3ccc(Cl)c(Cl)c3)c3ccccc32)nn1 (stereo unspecified) [US12473263, Example 7] | 6.26 |
| N=c1n(Cc2cn(Cc3ccccc3F)nn2)c2ccccc2n1CC(O)c1ccc(Cl)c(Cl)c1 (stereo unspecified) [US12473263, Example 10] | 6.43 |
| N=c1n(Cc2cn(CCc3ccccc3)nn2)c2ccccc2n1CC(O)c1ccc(Cl)c(Cl)c1 (stereo unspecified) [US12473263, Example 15] | 6.45 |
| N=c1n(Cc2cn(Cc3cccc(F)c3)nn2)c2ccccc2n1CC(O)c1ccc(Cl)c(Cl)c1 (stereo unspecified) [US12473263, Example 11] | 6.26 |
